The values below come from ChEMBL document CHEMBL5104167, “Development and profiling of mGlu7 NAMs with a range of saturable inhibition of agonist responses in vitro” (Bioorg Med Chem Lett, 2022).

A value given as a limit tells only on which side of the number the result lay.

Usually IC50 stands for the concentration needed to halve the response being measured. The Kp is the ratio of the level in a tissue or fluid to that in plasma or blood. As a reminder, the fraction unbound is the share of the substance not bound to proteins or other matrix.

In data set [1] the target is T1, Metabotropic glutamate receptor 7 (Homo sapiens, UniProt Q14831).
The target of data set [2] is T1, Metabotropic glutamate receptor 7. The source holds these as a separate data set.
Data set [3] can be described thus: Ratio of drug level in brain to plasma in rat. In kind it is ADME, cell-free.
Data set [4] deals with Metabotropic glutamate receptor 7 (Rattus norvegicus, UniProt P35400). The experiment in a line: Negative allosteric modulation of rat mGlu7 in HEK cells expressing Galpha15 assessed as inhibition of L-AP4-induced response measured by calcium mobilization assay. The class given is functional, cell-based. On the technique in general: Calcium flux is commonly read through the fluorescence of an indicator in the cells.

The nature of data set [5]: Drug concentration in rat brain assessed as unbound fraction. In kind it is ADME, tissue-based.
Data set [6] in a line: Plasma protein binding in rat assessed as unbound fraction. The class given is ADME, cell-free.
Where [7] appears, read: filed as negative allosteric modulator.

T1 sequence (Q14831 whole entry): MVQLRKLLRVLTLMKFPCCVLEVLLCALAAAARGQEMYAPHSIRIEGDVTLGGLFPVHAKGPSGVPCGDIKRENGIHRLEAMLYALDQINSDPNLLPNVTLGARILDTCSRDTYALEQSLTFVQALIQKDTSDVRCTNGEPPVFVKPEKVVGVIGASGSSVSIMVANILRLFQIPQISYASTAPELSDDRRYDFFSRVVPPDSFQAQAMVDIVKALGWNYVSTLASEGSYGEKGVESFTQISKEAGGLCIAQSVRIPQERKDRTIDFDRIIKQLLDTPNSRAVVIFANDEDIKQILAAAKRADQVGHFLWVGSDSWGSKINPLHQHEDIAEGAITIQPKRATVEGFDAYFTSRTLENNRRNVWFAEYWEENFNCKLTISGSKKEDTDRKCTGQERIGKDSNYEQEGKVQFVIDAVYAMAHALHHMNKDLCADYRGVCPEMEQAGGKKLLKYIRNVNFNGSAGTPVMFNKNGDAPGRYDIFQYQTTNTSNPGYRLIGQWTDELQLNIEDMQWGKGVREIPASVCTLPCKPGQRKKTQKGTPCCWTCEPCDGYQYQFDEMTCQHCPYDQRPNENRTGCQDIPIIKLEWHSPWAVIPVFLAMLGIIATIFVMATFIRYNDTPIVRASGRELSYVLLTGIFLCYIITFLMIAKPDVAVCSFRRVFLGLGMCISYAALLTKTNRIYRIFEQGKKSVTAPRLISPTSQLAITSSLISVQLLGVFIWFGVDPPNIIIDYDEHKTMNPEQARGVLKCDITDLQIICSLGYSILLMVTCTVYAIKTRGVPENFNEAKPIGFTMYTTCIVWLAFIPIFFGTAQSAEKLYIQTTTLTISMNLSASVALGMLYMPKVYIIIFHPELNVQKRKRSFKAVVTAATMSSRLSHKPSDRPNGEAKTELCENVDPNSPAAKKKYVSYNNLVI
Sequence of Metabotropic glutamate receptor 7 (Rattus norvegicus, UniProt P35400) (P35400 whole entry): as the sequence (Q14831 whole entry) above, with R5G, A27V, N454H, S488T, A520S, D578N counted along it

`COc1ccc(-c2nnc(-c3cc(OC(F)(F)F)ccc3-n3ccnc3)o2)cc1OC` showed an IC50 in data set [1] of 3 µM. Besides, in data set [2], the Emin amounted to 0%. Moreover, the Kp in data set [3] is 4.9.
With `COc1cc(C(=O)Nc2cc(OC(F)(F)F)ccc2-n2cncn2)ccc1OC1CCC1`, the IC50 was 1 µM in data set [4] and 3.1 µM in data set [1]. For the same compound, the Emin in data set [2] amounted to 19%.
Consider `COc1cc(C(=O)Nc2cc(OC(F)(F)F)ccc2-n2cncn2)ccc1OCC1CC1`, for which the Kp in data set [3] came out at 2.4.
Take `COc1ccc(-c2nnc(-c3cc(Cl)ccc3-c3ccnn3C)o2)cc1OC`: in data set [5], the fraction unbound was determined as 0.009. For the same compound, the Fu in data set [6] is recorded as 3.9%.
For the compound `COc1ccc(-c2noc(-c3cc(Cl)c(F)cc3-n3cncn3)n2)cc1OC`, the IC50 in data set [4] is greater than 30 µM. The compound also yielded an Emin in data set [2] (setting [7]) of 74%.
For `CCOC(=O)c1cnc2c(OC)cccc2c1-c1ccc(-c2cc(F)cnc2OC)nc1`, the half-inhibitory concentration (IC50) in data set [4] is 2.4 µM; in data set [1], 4.57 µM. In data set [2], this compound showed an Emin of 22.4%.
Regarding `COc1ccc(-c2nnc(-c3cc(OC(F)(F)F)ccc3-c3cn[nH]c3)o2)cc1OC`, the IC50 came to 2 µM in data set [4] and 5.4 µM in data set [1]. Moreover, the Emin in data set [2] is 26%.
The like results for `COc1cc(OCC(=O)Nc2cc(OC(F)(F)F)ccc2-n2cncn2)ccc1OC1COC1` were, in that order, 0.263 µM, 0.819 µM and 21.1%.
`COc1ccc(-c2nnc(-c3cc(OC(F)(F)F)ccc3-n3cncn3)o2)cc1OC`: the IC50 stood at 2 µM in data set [4] and 1.3 µM in data set [1]. Besides, the Emin in data set [2] (setting [7]) was determined as 60%.
For `COc1ccc(-c2noc(-c3cc(Cl)cc(F)c3-n3cncn3)n2)c(F)c1OC`, the IC50 in data set [4] is 1 µM. In addition, the Emin in data set [2] (setting [7]) came out at 69%.
With `COc1ccc(-c2coc(-c3cc(OC(F)(F)F)ccc3-n3cncn3)n2)cc1OC`, the IC50 in data set [4] is greater than 10 µM. This compound yielded an Emin in data set [2] (setting [7]) of 45%.
The like results for `COc1ccc(-c2noc(-c3cc(Cl)ccc3-n3cncn3)n2)c(F)c1OC` were, in that order, greater than 30 µM and 59%.
